Assay results: the NIST ThermoML archive (doi:10.1007/s10765-010-0860-3)
± gives the expanded uncertainty stated by the source.

Assay: xn = mol fraction of the nth substance listed
Conditions: 101 kPa, Liquid; for viscosity: Capillary tube (Ostwald / Ubbelohde) method; for mass density: Pycnometric method

CC1COC(=O)O1 (stereo not drawn) [4-methyl-1,3-dioxolan-2-one] + C1CCOC1
Conditions	mass density, 288.15 K [kg/m3]	mass density, 298.15 K [kg/m3]	mass density, 308.15 K [kg/m3]	viscosity, 288.15 K [mPa·s]	viscosity, 298.15 K [mPa·s]	viscosity, 308.15 K [mPa·s]
x1 = 0.0188	901.15 ± 0.85	890.25 ± 0.86	879.17 ± 0.87	0.524 ± 0.005	0.47 ± 0.004	0.432 ± 0.004
x1 = 0.0393	910.03 ± 0.85	899.18 ± 0.86	888.14 ± 0.88	0.542 ± 0.005	0.479 ± 0.004	0.439 ± 0.004
x1 = 0.0603	918.97 ± 0.85	908.19 ± 0.86	897.18 ± 0.88	0.561 ± 0.005	0.49 ± 0.004	0.448 ± 0.004
x1 = 0.077	926 ± 0.85	915.27 ± 0.86	904.28 ± 0.88	0.575 ± 0.005	0.5 ± 0.005	0.455 ± 0.004
x1 = 0.0988	935.05 ± 0.85	924.38 ± 0.86	913.41 ± 0.88	0.594 ± 0.005	0.513 ± 0.005	0.466 ± 0.004
x1 = 0.2117	979.75 ± 0.79	969.45 ± 0.87	958.45 ± 0.96	0.696 ± 0.006	0.6 ± 0.005	0.541 ± 0.005
x1 = 0.3057	1014.39 ± 0.82	1004.06 ± 0.88	993.26 ± 0.95	0.794 ± 0.007	0.699 ± 0.006	0.629 ± 0.006
x1 = 0.4024	1047.72 ± 0.85	1037.25 ± 0.89	1026.68 ± 0.94	0.921 ± 0.008	0.831 ± 0.007	0.745 ± 0.007
x1 = 0.4992	1078.98 ± 0.87	1068.45 ± 0.9	1057.96 ± 0.95	1.088 ± 0.009	0.998 ± 0.009	0.89 ± 0.008
x1 = 0.5997	1109.33 ± 0.88	1098.74 ± 0.91	1088.29 ± 0.95	1.317 ± 0.011	1.211 ± 0.01	1.072 ± 0.009
x1 = 0.7015	1138.16 ± 0.9	1127.39 ± 0.92	1117.06 ± 0.95	1.626 ± 0.014	1.473 ± 0.012	1.289 ± 0.011
x1 = 0.8033	1165.19 ± 0.91	1154.55 ± 0.93	1144.02 ± 0.97	2.03 ± 0.017	1.786 ± 0.015	1.54 ± 0.013
x1 = 0.9064	1190.96 ± 0.88	1179.68 ± 0.95	1169.74 ± 1	2.556 ± 0.021	2.158 ± 0.018	1.83 ± 0.015
x1 = 1	1208.67 ± 0.99	1197.58 ± 0.96	1187.16 ± 0.95	3.086 ± 0.025	2.5 ± 0.021	2.073 ± 0.017

CC1COC(=O)O1 (stereo not drawn) [4-methyl-1,3-dioxolan-2-one] + C1COCCO1
Conditions	mass density, 288.15 K [kg/m3]	mass density, 298.15 K [kg/m3]	mass density, 308.15 K [kg/m3]	viscosity, 288.15 K [mPa·s]	viscosity, 298.15 K [mPa·s]	viscosity, 308.15 K [mPa·s]
x1 = 0.0213	1042.6 ± 0.92	1031.46 ± 0.92	1020.15 ± 0.93	1.429 ± 0.012	1.181 ± 0.01	1.027 ± 0.009
x1 = 0.041	1045.89 ± 0.92	1034.79 ± 0.92	1023.54 ± 0.93	1.421 ± 0.012	1.177 ± 0.01	1.027 ± 0.009
x1 = 0.0636	1049.76 ± 0.92	1038.7 ± 0.92	1027.51 ± 0.93	1.413 ± 0.012	1.174 ± 0.01	1.02 ± 0.009
x1 = 0.0823	1053.01 ± 0.92	1041.99 ± 0.91	1030.85 ± 0.93	1.408 ± 0.012	1.173 ± 0.01	1.026 ± 0.009
x1 = 0.0999	1056.12 ± 0.91	1045.13 ± 0.91	1034.02 ± 0.93	1.404 ± 0.012	1.172 ± 0.01	1.022 ± 0.009
x1 = 0.202	1074.8 ± 0.92	1064.02 ± 0.91	1053.09 ± 0.91	1.408 ± 0.012	1.184 ± 0.01	1.028 ± 0.009
x1 = 0.299	1093.28 ± 0.91	1082.69 ± 0.91	1071.87 ± 0.92	1.45 ± 0.012	1.22 ± 0.01	1.053 ± 0.009
x1 = 0.3991	1112.62 ± 0.92	1101.92 ± 0.91	1091.44 ± 0.92	1.534 ± 0.013	1.286 ± 0.011	1.102 ± 0.009
x1 = 0.4991	1131.72 ± 0.91	1121.15 ± 0.92	1110.7 ± 0.94	1.659 ± 0.014	1.381 ± 0.012	1.171 ± 0.01
x1 = 0.5987	1150.06 ± 0.91	1139.4 ± 0.92	1129.1 ± 0.95	1.826 ± 0.015	1.508 ± 0.013	1.274 ± 0.011
x1 = 0.6996	1167.4 ± 0.91	1156.75 ± 0.93	1146.43 ± 0.96	2.039 ± 0.017	1.671 ± 0.014	1.405 ± 0.012
x1 = 0.8049	1183.66 ± 0.91	1172.85 ± 0.94	1162.59 ± 0.98	2.307 ± 0.019	1.878 ± 0.016	1.571 ± 0.013
x1 = 0.9003	1196.16 ± 0.95	1185.45 ± 0.95	1175.02 ± 0.96	2.589 ± 0.021	2.101 ± 0.017	1.748 ± 0.015
x1 = 1	1208.67 ± 0.99	1197.58 ± 0.96	1187.16 ± 0.95	3.086 ± 0.025	2.5 ± 0.021	2.073 ± 0.017
